Laboratory results from patent US20060241026A1, “Novel cyclic peptides and use thereof as anti-microbial agents” (priority 2002, published 2006).
In brackets after ≈: the same amount, converted by molar mass. Entries after “also recorded” stand apart in the source; their conditions may differ. Like-named read-outs stand apart in the source and are kept apart here. Positions of bridges follow the written chain, without caps; N, C: chain ends. Residues, ends and D or L forms follow the SMILES beside them.

Legend:
Fusarium oxysporum = format: cell-based
Procedure: (§1) The anti-fungal activity was determined by calculating the MIC in a growth inhibition assay for the shrimp parasite fungus Fusarium oxysporum, in liquid phase, according to the protocol described by FELHBAM et al. (J. Biol. Chem., 1994, 269:33159-63). Doubling dilutions of each peptide were realized in the wells of a Microtest plate in a volume of 10 μl. 90 μl of spores resuspended in potato dextrose broth medium (DIFCO) at a final concentration of 10^4 spores/ml were added to each well. The growth inhibition was measured after incubation for 24 h at 25° C. in the dark, by observation under an optical microscope and measurement of the increase in OD at 600 nm. The value of the MIC corresponds to the first well for which the optical density had not increased.

Micrococcus luteus = format: cell-based
Procedure: (§2) The activity of the synthetic peptides was tested with respect to the Gram+ bacteria Mycrocossus luteus, Staphylococcus aureus, Staphylococcus epidermidis and Bacillus megaterium. The activities were determined according to the protocol described by HANCOCK et al. (http://www.interchg.ubc.ca/bobh/methods.htm)
(§3) The MIC was determined for each peptide by inhibition of growth in liquid medium. Doubling dilution of peptide was realized in the wells of a Microtest plate in a volume of 10 μl. The bacteria were grown in MUELLER HINTON BROTH (MHB, Difco) liquid medium. During the exponential growth phase, a solution with an optical density of 0.001 at 600 nm was produced, and 100 μl of this suspension were added to each well. The incubation lasted 24 h at 30° C., and the optical densities of each well were then measured at 600 nm. The value of the MIC corresponds to the first well for which the optical density had not changed.
(§4) The dishes were incubated for 24 h at 30° C. The value of the MBC corresponds to the lowest concentration of the peptide for which no colony developed.

Staphylococcus aureus = format: cell-based
Procedure: as §2, §3, §4

Bacillus megaterium = format: cell-based
Procedure: as §2, §3, §4

[1] = system: Staphylococcus epidermidis; format: cell-based
Procedure: as §2, §3, §4

Gram+ bacteria = conditions: cited from earlier work
[2] = system: Gram+ and Gram− bacteria and a filamentous fungus; assay: Antibiotic tests on Gram+ and Gram- bacteria and on a filamentous fungus, summary in words; format: cell-based; conditions: compared with the native molecule or the minimal loop
Procedure: as §2, §3, §4, §1
Using the 3-D structure of the native molecule as a basis, said molecule was fractionated into 17 elements (table I). All these fragments were synthesized and their activities were assayed using antibiotic tests on Gram+ and Gram− bacteria and on a filamentous fungus. The minimum inhibitory concentration (MIC) and minimum […] concentration (MBC) of each peptide were thus determined and were compared with those of the native molecule.

[3] = system: Gram+ and Gram− bacteria and a filamentous fungus; assay: as above; format: cell-based

Compound | Fusarium oxysporum MIC (Fusarium oxysporum; Table II, 24 h at 25° C.) | Micrococcus luteus MBC (Micrococcus luteus; Table II) | Micrococcus luteus MIC (Micrococcus luteus; Table II) | Staphylococcus aureus MBC (Staphylococcus aureus; Table II) | Staphylococcus aureus MIC (Staphylococcus aureus; Table II) | Bacillus megaterium MBC (Bacillus megaterium; Table II) | Bacillus megaterium MIC (Bacillus megaterium; Table II) | Staphylococcus epidermidis MBC ([1]; Table II) | Staphylococcus epidermidis MIC ([1]; Table II) | Fusarium oxysporum MIC (Fusarium oxysporum; 24 h) | Micrococcus luteus MBC (Micrococcus luteus) | Micrococcus luteus MIC (Micrococcus luteus) | MIC on M leuteus (Micrococcus luteus; 24 h) | Staphylococcus aureus MBC (Staphylococcus aureus) | Staphylococcus aureus MIC (Staphylococcus aureus) | Bacillus megaterium MBC (Bacillus megaterium; Bacillus) | Bacillus megaterium MIC (Bacillus megaterium; Bacillus) | Staphylococcus epidermidis MBC [1] | Staphylococcus epidermidis MIC [1] | anti-microbial activity (in words) [2] | other results
GFGCPNNYQCHRHCKSIPGRCGGYCGGWHRLRCTCYRCG (listed as Mytilus galloprovincialis) [SEQ ID NO:3, Mytilus galloprovincialis defensin, small cationic protein of 4 kDa comprising 39 amino acids; native molecule, reference compound] | 5 µM | 1.5 µM | 0.6 µM | 1.2 µM | 0.6 µM | 1.5 µM | 0.8 µM | 6.2 µM | 3.1 µM |  |  |  |  |  |  |  |  |  |  |  | MBC on M leuteus (Micrococcus luteus; Table 1, plating on MHA, 24 h at 30° C.): 2 µM; anti-bacterial and anti-fungal activity of MGD1 (in words) (Gram+ bacteria): has anti-bacterial activity against Gram+ bacteria and anti-fungal activity
N=C(N)NCCC[C@@H]1NC(=O)[C@H](CCCCN)NC(=O)[C@H](CCCNC(=N)N)NC(=O)[C@H](CCCCN)NC(=O)[C@H](Cc2c[nH]c3ccccc23)NC(=O)CNC(=O)CNC(=O)[C@@H](N)CSSC[C@@H](C(=O)O)NC1=O [SEQ ID NO:2, C^(S)GGWKRKRC^(S)] (H-CGGWKRKRC-OH; disulfide 1-9; N-terminus and C-terminus assumed) |  |  |  |  |  |  |  |  |  | 43 µM | >75 µM | 14 µM | 13 µM (≈ 14.2 µg/mL) | 33 µM | 15 µM | >75 µM | 24 µM | >75 µM | 20 µM | increases the activity; also recorded: antibacterial potency greater than that of the cyclic peptide of sequence SEQ ID NO:1 | 
CC(C)C[C@@H]1NC(=O)[C@H](CCCNC(=N)N)NC(=O)[C@H](Cc2c[nH]cn2)NC(=O)[C@H](Cc2c[nH]c3ccccc23)NC(=O)CNC(=O)CNC(=O)[C@@H](NC(=O)[C@H](Cc2ccc(O)cc2)NC(=O)CNC(=O)CNC(=O)[C@@H](N)CO)CSSC[C@@H](C(=O)O)NC(=O)[C@H](CCCNC(=N)N)NC1=O [SEQ ID NO:4, SGGYC^(S)GGWHRLRS^(S)] (H-SGGYCGGWHRLRC-OH; disulfide 5-13; N-terminus and C-terminus assumed) |  |  |  |  |  |  |  |  |  | 41 µM | 13 µM | 26 µM | 67 µM (≈ 97.1 µg/mL) | >75 µM | 67 µM | >75 µM | 52 µM | >75 µM | 38 µM |  | 
CC(C)C[C@@H]1NC(=O)[C@H](CCCNC(=N)N)NC(=O)[C@H](Cc2c[nH]cn2)NC(=O)[C@H](Cc2c[nH]c3ccccc23)NC(=O)CNC(=O)CNC(=O)[C@@H]2CSSC[C@H](NC(=O)[C@H](CCCNC(=N)N)NC1=O)C(=O)N[C@@H]([C@@H](C)O)C(=O)N[C@@H](CO)C(=O)N[C@@H](Cc1ccc(O)cc1)C(=O)N[C@@H](CCCNC(=N)N)C(=O)N[C@H](C(=O)NCC(=O)O)CSSC[C@H](N)C(=O)NCC(=O)NCC(=O)N[C@@H](Cc1ccc(O)cc1)C(=O)N2 [SEQ ID NO:7, C^(S2)GGYC^(S1)GGWHRLRC^(S1)TSYRC^(S2)G] (H-CGGYCGGWHRLRCTSYRCG-OH; disulfide 1-18, 5-13; N-terminus and C-terminus assumed) |  |  |  |  |  |  |  |  |  |  |  |  |  |  |  |  |  |  |  | more active than the minimal structure | ability to lyse cells [3]: brings about the ability to lyse cells
CC(C)C[C@@H]1NC(=O)[C@H](CCCNC(=N)N)NC(=O)[C@H](Cc2c[nH]cn2)NC(=O)[C@H](Cc2c[nH]c3ccccc23)NC(=O)CNC(=O)CNC(=O)[C@@H](N)CSSC[C@@H](C(=O)O)NC(=O)[C@H](CCCNC(=N)N)NC1=O [SEQ ID NO:1, C^(S)GGWHRLRC^(S)] (H-CGGWHRLRC-OH; disulfide 1-9; N-terminus and C-terminus assumed) | 28 µM | 50 µM | 24 µM | 75 µM | 25 µM | 50 µM | 26 µM | 50 µM | 17 µM |  |  |  |  |  |  |  |  |  |  | has anti-bacterial activity | MIC on M leuteus (Micrococcus luteus; Table 1, growth inhibition in liquid medium, 24 h at 30° C.): 33 µM (≈ 35.8 µg/mL)
